Laboratory results taken from patent EP1133986A1, “Use of deramciclane for the treatment of anxiety and depression” (priority 2000, dated 2001).
Where two headings read alike, the source gives them in different places.

Experiments:
[1] = rats, 3 mg/kg, cited from earlier work
[2] = humans, cited from earlier work; for Cmin and Cmax range: repeated administration for one week
[3] = rat, cited from earlier work
[4] = human, cited from earlier work
[5] = system: rats; conditions: single intraperitoneal administration; cited from earlier work
[6] = molecular target: T1, serotonin 5HT2A-receptor (Homo sapiens, UniProt P28223); set-up: serotonin 5-HT2A-receptors in frontal cortex of healthy male volunteers; from tissue; host or cells: frontal cortex of living healthy male volunteers; conditions: humans, brain 5HT2A-receptor, single oral dose; cited from earlier work
T1 sequence (P28223 whole entry): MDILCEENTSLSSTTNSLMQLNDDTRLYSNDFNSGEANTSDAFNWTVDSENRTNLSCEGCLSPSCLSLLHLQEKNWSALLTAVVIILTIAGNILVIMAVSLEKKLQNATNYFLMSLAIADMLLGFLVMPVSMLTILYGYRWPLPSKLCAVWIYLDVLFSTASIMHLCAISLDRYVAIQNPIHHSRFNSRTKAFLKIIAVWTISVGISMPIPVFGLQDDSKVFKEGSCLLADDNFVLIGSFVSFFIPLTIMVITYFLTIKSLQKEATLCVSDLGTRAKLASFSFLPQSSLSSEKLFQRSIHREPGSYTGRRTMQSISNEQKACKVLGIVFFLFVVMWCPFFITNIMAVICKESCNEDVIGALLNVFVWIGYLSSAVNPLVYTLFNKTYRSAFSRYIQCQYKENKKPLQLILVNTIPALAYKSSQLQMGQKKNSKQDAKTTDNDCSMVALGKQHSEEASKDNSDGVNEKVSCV

[7] = system: depressive symptoms; assay: randomised placebo-controlled double-blind study in GAD, Montgomery Åsberg Depression Rating Scale (MADRS); assay type: in vivo, humans; conditions: GAD patients
Description: (§1) The efficacy of deramciclane in the treatment of anxiety, specifically GAD, was studied in a randomised placebo-controlled double-blind study. In addition, the dose-dependency of the effects of deramciclane was evaluated. Total of 208 patients were included in the study. The subjects were randomly assigned to four parallel groups to receive one tablet twice daily (b.i.d) of a placebo, 5mg (=10mg/day), 15mg (=30mg/day), or 30mg (=60mg/day) deramciclane. The study started with a one-week placebo run-in period, followed by an eight-week placebo-controlled active treatment and a two-week placebo washout period.
The efficacy of deramciclane on depressive symptoms was studied using Montgomery Åsberg Depression Rating Scale (MADRS).

[8] = system: rats; conditions: cited from earlier work
[9] = molecular target: T1, serotonin 5HT2A-receptor; conditions: cited from earlier work
[10] = system: anxiety, specifically GAD; assay: randomised placebo-controlled double-blind study in GAD, Hamilton Anxiety Scale (HAM-A); assay type: in vivo, humans; conditions: GAD patients
Description: as §1
The efficacy of deramciclane on anxiety symptoms was studied by the efficacy variable Hamilton Anxiety Scale (HAM-A), analyzing the change in the score and using responder criterion (at least 50 % reduction in HAM-A total score).

[11] = system: rat; conditions: intraperitoneally 1 or 10 mg/kg, 8 times, twice a day, before the test; cited from earlier work
[12] = system: rats; conditions: oral doses of 25 and 100 mg/kg; cited from earlier work
[13] = system: mice; conditions: single subcutaneous administration, 3 mg/kg; cited from earlier work
[14] = set-up: species or system human; conditions: in vivo
Description: A comparative pharmacokinetic study of orally administered deramciclane in rats, dogs, rabbits and humans (Klebovich et al Pharm. Pharmacol. Commun., 4: 129-136, 1998), it was shown that the plasma concentration curves obtained after the administration of a single 3mg/kg oral dose of deramciclane to rats (dogs, rabbits) and human show considerable species specific differences. […] Thus a 40-times lower oral dose of deramciclane could be used in man to result in the same maximal plasma concentration as in rat. […] Thus over 300 times lower oral doses should result in equal exposure in humans than in rats. Basing only the Cmax difference between rat and man, it can be predicted that considerably lower doss should be centrally acitive in humans than in rat. The minimum oral effective anti-anxiety dose in rats was 1 mg/kg (1-30mg/kg the full range; see above), i.e. in a 70 kg-man this would mean 70 mg dose. […] This would result in 70 mg/40= 1.75 mg (i.e. 0.025 mg/kg) as an effective dose in man.

[15] = system: rats; conditions: cited from earlier work; remark: listed apart in the source
[16] = system: mice; conditions: oral doses 48-160 mg/kg; cited from earlier work
[17] = molecular target: T2, serotonin 5-HT2C-receptor (Homo sapiens, UniProt P28335); conditions: cited from earlier work
T2 sequence (P28335 33-458): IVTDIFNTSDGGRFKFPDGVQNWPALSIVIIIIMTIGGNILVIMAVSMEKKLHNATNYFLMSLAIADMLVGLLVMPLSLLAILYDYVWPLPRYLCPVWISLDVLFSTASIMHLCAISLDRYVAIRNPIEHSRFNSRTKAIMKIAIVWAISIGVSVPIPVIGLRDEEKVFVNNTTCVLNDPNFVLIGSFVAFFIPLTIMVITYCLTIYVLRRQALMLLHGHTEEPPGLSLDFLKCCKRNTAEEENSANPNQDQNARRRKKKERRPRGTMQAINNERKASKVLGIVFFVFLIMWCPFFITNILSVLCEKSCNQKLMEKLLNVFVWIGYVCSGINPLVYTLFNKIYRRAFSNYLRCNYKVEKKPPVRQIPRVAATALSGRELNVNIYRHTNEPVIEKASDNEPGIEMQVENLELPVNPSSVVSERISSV

[18] = single oral administration, 3 mg/kg

factor by which oral dose in man can be lower for the same maximal plasma concentration as in rat [14]: 40 times
factor by which oral doses in humans can be lower for equal exposure as in rats [14]: over 300 times
SMILES: CN(C)CCO[C@]1(c2ccccc2)C[C@H]2CC[C@]1(C)C2(C)C [deramciclane, (lR,2S,4R)-(-)-2-[N,N-(dimethylaminoethoxy)]-2-phenyl-1,7,7-trimethyl-bicyclo[2.2.1]heptane]
radioactivity in several organs including blood and the brain ([1]; intravenous administration): high radioactivity
radioactivity in organs, especially in the brain ([1]; oral administration, compared with intravenous): substantially lower
Cmin and Cmax range ([2]; 20 mg daily dose): 16 to 33 ng/mL
Cmin and Cmax range ([2]; 60 mg daily dose): 48 to 91 ng/mL
Cmax ([2]; single oral administration of 20 mg): 24 ± 9.4 ng/mL
Cmax ([2]; single oral administration of 30 mg): 27 ± 6.1 ng/mL
peak plasma concentration (Cmax) ([3]; single 3 mg/kg oral dose): 5.4 ng/mL
mean AUC 0 - ∞ [3, 18]: 11.9 ng·h/mL
peak plasma concentration (Cmax) ([4]; single 3 mg/kg oral dose): 217.5 ng/mL
mean AUC 0 - ∞ [4, 18]: 3737.8 ng·h/mL
minimum effective dose (social interaction time) [5]: 0.7 mg/kg
plasma concentration at 50% receptor occupancy [6]: ~21 ng/mL
plasma concentration at 90% receptor occupancy [6]: about 70 ng/ml
effect on MADRS scores ([7]; 5 mg b.i.d): ineffective
decrease of MADRS scores ([7]; 15mg b.i.d, p= 0.028): 7.7 points
decrease of MADRS scores ([7]; 30 mg b.i.d, p= 0.016): 8.0 points
caerulein-induced decrease in exploratory behavior ([8]; intraperitoneal dose of 0.5 mg/kg): able to attenuate
effect in elevated plus maze test ([8]; rats, single intraperitoneal doses 0.1 mg/kg - 5 mg/kg): totally ineffective
antagonism of the receptor [9]: potent antagonist
binding affinity ([9]; in vitro): high affinity
HAM-A score compared with placebo ([10]; 5 mg b.i.d, eight weeks): No difference
responders (at least 50 % reduction in HAM-A scale) ([10]; 5 mg b.i.d. (n=31), placebo 54 %): 57%
decrease of HAM-A score from baseline ([10]; 15 mg b.i.d, eight weeks, p=0.006 versus placebo): 14.5 points
responders (at least 50 % reduction in HAM-A scale) ([10]; 15 mg b.i.d. (n=39), p=0.020 versus placebo): 76%
responders (at least 50 % reduction in HAM-A scale) ([10]; 30 mg b.i.d. (n=37)): 70%
decrease of HAM-A score from baseline ([10]; 30 mg b.i.d., eight weeks, not significant versus placebo): 14.5 points
helpless behaviour induced by inescapable electric foot shocks [11]: dose dependently attenuated
effect in forced swimming test [12]: clearly ineffective
activity in two compartment test [13]: active
minimum oral effective anti-anxiety dose ([15]; oral): 1 mg/kg
activity in punished drinking test ([15]; single oral administration, 1 mg/kg and 10 mg/kg): active
effect on tetrabenazine-induced ptosis [16]: negligible
antagonism of the receptor [17]: potent antagonist
binding affinity ([17]; in vitro): high affinity
